From paper PMC9516332 (Frontiers in Oncology, 2022)
Read-outs that look alike come from different tables or passages of the source.

What was measured:
[1] = target: panel of 255 wild-type kinases (Homo sapiens, UniProt P42684); assay: Kinase panel profiling at 1 µmol/L (MSA or IMAP), percentage inhibition; type: biochemical; conditions: ARG kinase assay; 1 µmol/L single concentration; read-out: %-inhibition ARG
[2] = target: panel of 255 wild-type kinases (Homo sapiens, UniProt O00311); assay: as above; type: biochemical; conditions: CDC7/ASK kinase assay; 1 µmol/L single concentration; read-out: %-inhibition CDC7/ASK
[3] = tested on: 134 cancer cell lines; assay: Cell viability assay (ATPlite, 72 hours), IC50 on cancer cell line panel

Cc1cc(Nc2ncnc3ccc(NC4=NC(C)(C)CO4)cc23)ccc1Oc1ccn2ncnc2c1 [tucatinib]
inhibition at 1 µM [1]: 3.73%
inhibition at 1 µM [2]: -0.857%
IC50 ([3]; HEC-6, read-out: IC50 in cell proliferation assay, HEC-6 cell line (EGFR p.A289V)): 14.8 µM
IC50 ([3]; Homo sapiens, 769-P, read-out: IC50 in cell proliferation assay, cell line 769-P): 20.2 µM
IC50 ([3]; Homo sapiens, 786-0, read-out: IC50 in cell proliferation assay, cell line 786-O): 21.3 µM
IC50 ([3]; Homo sapiens, A 172, read-out: IC50 in cell proliferation assay, cell line A-172): 17.4 µM
IC50 ([3]; Homo sapiens, A204, read-out: IC50 in cell proliferation assay, cell line A-204): 11.4 µM
IC50 ([3]; Homo sapiens, A498, read-out: IC50 in cell proliferation assay, cell line A-498): 20.4 µM
IC50 ([3]; Homo sapiens, A549, read-out: IC50 in cell proliferation assay, cell line A-549): 25.7 µM
IC50 ([3]; Homo sapiens, A704, read-out: IC50 in cell proliferation assay, cell line A-704): > 31.6 µM
IC50 ([3]; Homo sapiens, A-375, read-out: IC50 in cell proliferation assay, cell line A-375 (BRAF p.V600E)): 11.3 µM
IC50 ([3]; Homo sapiens, A-427, read-out: IC50 in cell proliferation assay, cell line A-427): 22.2 µM
IC50 ([3]; Homo sapiens, ACHN, read-out: IC50 in cell proliferation assay, cell line ACHN): 13.9 µM
IC50 ([3]; Homo sapiens, AN3-CA, read-out: IC50 in cell proliferation assay, cell line AN3-CA (FGFR2 p.N549K)): 24.5 µM
IC50 ([3]; Homo sapiens, ASPC1, read-out: IC50 in cell proliferation assay, cell line AsPC-1): > 31.6 µM
IC50 ([3]; Homo sapiens, AU565, read-out: IC50 in cell proliferation assay, cell line AU565 (ERBB2 amplification)): 0.125 µM
IC50 ([3]; Homo sapiens, BT-20, read-out: IC50 in cell proliferation assay, cell line BT-20): 28.8 µM
IC50 ([3]; Homo sapiens, BT-474, read-out: IC50 in cell proliferation assay, cell line BT-474 (ERBB2 amplification)): 0.029 µM
IC50 ([3]; Homo sapiens, BT-549, read-out: IC50 in cell proliferation assay, cell line BT-549): 15.9 µM
IC50 ([3]; Homo sapiens, BXPC-3, read-out: IC50 in cell proliferation assay, cell line BxPC-3): 12.6 µM
IC50 ([3]; Homo sapiens, C-33-A, read-out: IC50 in cell proliferation assay, cell line C-33 A): 0.412 µM
IC50 ([3]; Homo sapiens, CAL-27, read-out: IC50 in cell proliferation assay, cell line CAL-27): 13.7 µM
IC50 ([3]; Homo sapiens, CCF-STTG1, read-out: IC50 in cell proliferation assay, cell line CCF-STTG1): > 31.6 µM
IC50 ([3]; Homo sapiens, CCRF-CEM, read-out: IC50 in cell proliferation assay, cell line CCRF-CEM): 17.7 µM
IC50 ([3]; Homo sapiens, COLO 205, read-out: IC50 in cell proliferation assay, cell line COLO 205 (BRAF p.V600E)): 22.2 µM
IC50 ([3]; Homo sapiens, COLO-829, read-out: IC50 in cell proliferation assay, cell line COLO 829 (BRAF p.V600E)): 20.6 µM
IC50 ([3]; Homo sapiens, DLD-1, read-out: IC50 in cell proliferation assay, cell line DLD-1): 23.2 µM
IC50 ([3]; Homo sapiens, DU-4475, read-out: IC50 in cell proliferation assay, cell line DU4475 (BRAF p.V600E)): 10.7 µM
IC50 ([3]; Homo sapiens, Daoy, read-out: IC50 in cell proliferation assay, cell line Daoy): 30.2 µM
IC50 ([3]; Homo sapiens, DoTc2-4510, read-out: IC50 in cell proliferation assay, cell line DoTc2 4510): 5.59 µM
IC50 ([3]; Homo sapiens, EOL1, read-out: IC50 in cell proliferation assay, cell line EoL-1 (FIP1L1-PDGFRA)): 4.24 µM
IC50 ([3]; Homo sapiens, FaDu, read-out: IC50 in cell proliferation assay, cell line FaDu): 14.1 µM
IC50 ([3]; Homo sapiens, G-361, read-out: IC50 in cell proliferation assay, cell line G-361 (BRAF p.V600E)): 13.5 µM
IC50 ([3]; Homo sapiens, HCC827, read-out: IC50 in cell proliferation assay, cell line HCC827 (EGFR exon19del)): 2.38 µM
IC50 ([3]; Homo sapiens, HCC4006, read-out: IC50 in cell proliferation assay, cell line HCC4006 (EGFR exon19del)): 6.56 µM
IC50 ([3]; Homo sapiens, HCT-15, read-out: IC50 in cell proliferation assay, cell line HCT 15): 16.7 µM
IC50 ([3]; Homo sapiens, HCT-116, read-out: IC50 in cell proliferation assay, cell line HCT 116): 21.9 µM
IC50 ([3]; Homo sapiens, HEC-1, read-out: IC50 in cell proliferation assay, HEC-1 cell line): 13.9 µM
IC50 ([3]; Homo sapiens, HEC-1B, read-out: IC50 in cell proliferation assay, HEC-1-B cell line (EGFR p.A864V)): 1.62 µM
IC50 ([3]; Homo sapiens, HL-60, read-out: IC50 in cell proliferation assay, HL-60 cell line): 16.9 µM
IC50 ([3]; Homo sapiens, HT, read-out: IC50 in cell proliferation assay, HT cell line): 29.9 µM
IC50 ([3]; Homo sapiens, HT-1080, read-out: IC50 in cell proliferation assay, HT-1080 cell line): 17.2 µM
IC50 ([3]; Homo sapiens, Hs746T, read-out: IC50 in cell proliferation assay, Hs 746.T cell line (MET exon14skip + amplification)): 12.4 µM
IC50 ([3]; Homo sapiens, Hs-578T, read-out: IC50 in cell proliferation assay, Hs 578T cell line): 24.1 µM
IC50 ([3]; Homo sapiens, HuTu80, read-out: IC50 in cell proliferation assay, HuTu 80 cell line): 0.623 µM
IC50 ([3]; Homo sapiens, J82, read-out: IC50 in cell proliferation assay, J82 cell line): > 31.6 µM
IC50 ([3]; Homo sapiens, Jurkat E6.1, read-out: IC50 in cell proliferation assay, Jurkat E6.1 cell line): 14.7 µM
IC50 ([3]; Homo sapiens, K562, read-out: IC50 in cell proliferation assay, K-562 cell line): 8.53 µM
IC50 ([3]; Homo sapiens, KATO III, read-out: IC50 in cell proliferation assay, KATO III cell line (FGFR2 amplification)): 17.9 µM
IC50 ([3]; Homo sapiens, KG-1, read-out: IC50 in cell proliferation assay, KG-1 cell line (FGFR1OP2-FGFR1)): 16.2 µM
IC50 ([3]; Homo sapiens, KLE, read-out: IC50 in cell proliferation assay, KLE cell line): 4.74 µM
IC50 ([3]; Homo sapiens, KMS-11, read-out: IC50 in cell proliferation assay, KMS-11 cell line (FGFR3 p.Y373C)): 18.2 µM
IC50 ([3]; Homo sapiens, KU812, read-out: IC50 in cell proliferation assay, Ku812 cell line): 22.6 µM
IC50 ([3]; Homo sapiens, Kasumi 1, read-out: IC50 in cell proliferation assay, Kasumi-1 cell line (KIT p.N822K)): 24.3 µM
IC50 ([3]; Homo sapiens, LC-2-ad, read-out: IC50 in cell proliferation assay, LC-2/ad cell line (CCDC6-RET)): 22.5 µM
IC50 ([3]; Homo sapiens, LNCaP-Clone-FGC, read-out: IC50 in cell proliferation assay, LNCaP clone FGC cell line): 21.8 µM
IC50 ([3]; Homo sapiens, LS174T, read-out: IC50 in cell proliferation assay, LS174T cell line): 20.3 µM
IC50 ([3]; Homo sapiens, LS-411N, read-out: IC50 in cell proliferation assay, LS411N cell line (BRAF p.V600E)): 21.4 µM
IC50 ([3]; Homo sapiens, LoVo, read-out: IC50 in cell proliferation assay, LoVo cell line): 25.7 µM
IC50 ([3]; Homo sapiens, MCF7, read-out: IC50 in cell proliferation assay, MCF-7 cell line): 30.5 µM
IC50 ([3]; Homo sapiens, MDA-MB-231, read-out: IC50 in cell proliferation assay, MDA-MB-231 cell line): 22.5 µM
IC50 ([3]; Homo sapiens, MDA-MB-453, read-out: IC50 in cell proliferation assay, MDA-MB-453 cell line): 5.93 µM
IC50 ([3]; Homo sapiens, MDA-MB-468, read-out: IC50 in cell proliferation assay, MDA-MB-468 cell line): 8.88 µM
IC50 ([3]; Homo sapiens, MG-63, read-out: IC50 in cell proliferation assay, MG-63 cell line): 29.4 µM
IC50 ([3]; Homo sapiens, MIA PaCa-2, read-out: IC50 in cell proliferation assay, MIA PaCa-2 cell line): 18.3 µM
IC50 ([3]; Homo sapiens, MKN-45, read-out: IC50 in cell proliferation assay, MKN45 cell line (MET amplification)): 17.1 µM
IC50 ([3]; Homo sapiens, MOLM-13, read-out: IC50 in cell proliferation assay, MOLM-13 cell line (FLT3 ITD)): 14.3 µM
IC50 ([3]; Homo sapiens, MOLT-4, read-out: IC50 in cell proliferation assay, MOLT-4 cell line): 20.3 µM
